The values that follow come from patent US20240024233A1, “Oral Hydrogel Compositions and Uses” (Colgate-Palmolive Company, priority 2020, published 2024).

Data set [1] deals with Actinomyces viscosus (ATCC #43146) and Streptococcus oralis (ATCC #35037). Description: Viability via SIKT with degraded oral gel. To be noted: for percentage of cells that are viable relative to PBS control: n = 6. It is filed as cell-based. The source says:
For viability via SIKT, the same gel degradation procedure as described above is used to treat an overnight culture of Actinomyces viscosus (ATCC #43146) and Streptococcus oralis (ATCC #35037). […] Samples are then processed and the results are presented as a percentage of cells that are viable relative to a control sample treated with PBS alone (negative control).

For data set [2] the following is noted: in water; cited from earlier work.
The nature of data set [3]: Tetrahydrocurcumin solubility (saturation) in hydrogel formulations, UV 280 nm. It counts as physicochemical. Conditions: 4 °C, aqueous with cosolvent or surfactant or cyclodextrin, thermodynamic from solid; tested gels. On the procedure: Tetrahydrocurcumin is a highly insoluble drug. It has water solubility of about 6 μg/mL, and this has severely limited attempts to evaluate its in vitro or in vivo potency as a drug because of the difficulty of formulating compositions which can effectively deliver it to body tissues. It is thus a useful reference for compositions intended to deliver low-solubility active agents.
A range of hydrogel formulations are prepared in cold (4° C.) deionized water. Each cold formulation liquid is loaded with tetrahydrocurcumin (0.3 mg/mL of gel) via dispersion with a Speed Mixing apparatus (FlackTek, Inc). Samples are left to interact at 4° C. for 48 hours. Formulations are centrifuged at 10,000 rpm for 60 seconds to separate undissolved active. The saturation of active is determined via UV absorbance at 280 nm.
Tetrahydrocurcumin is found to be soluble in the above tested gels at the following saturation concentrations: […]

Converted amounts (≈) assume the structure as drawn.

On to `CCO` [Ethanol], for which the “percentage of cells that are viable relative to PBS control, Average” value in data set [1] (Average of Day 0-28, n = 24) was found to be 16.3%. For the same compound, the “percentage of cells that are viable relative to PBS control” value is listed as 16.8% in data set [1] (Day 0, 30 seconds treatment); 14.5% in data set [1] (Day 7, 30 seconds treatment); 14.7% in data set [1] (Day 14, 30 seconds treatment); 19.0% in data set [1] (Day 28, 30 seconds treatment).
For orientation: solubility means how much of the substance goes into solution per volume. Higher therefore signals a readily soluble substance. Take `COc1cc(CCC(=O)CC(=O)CCc2ccc(O)c(OC)c2)ccc1O` [Tetrahydrocurcumin]: the water solubility entry in data set [2] is listed as “about 6 μg/mL”. In addition, the solubility at 48 h in data set [3] fell in the range of 85 to 236 µg/mL (≈ 228 to 634 µM).
